Reference: patent US4038390A, “Salts of p-dihydroxybenzene disulfonic acids for combatting hemorrhages and fragility of the capillaries” (Laboratorios del Dr. Esteve, S.A., priority 1972, dated 1977)

Key:
[1] = Acute toxicity in the mouse (LD50, method of Reed and Muench); details: in vivo
Experimental: (§1) 1. Acute toxicity in the mouse and the rat
(§2) The LD50 was determined according to the method of Reed and Muench.

[2] = Acute toxicity in the rat (LD50, method of Reed and Muench); details: in vivo
Experimental: as §1
100 to 150 g Sprague-Dawley rats
as §2

capillary permeability = assay: Protective action on capillaries: capillary permeability, modified method of BEACH-STEINITZ; format: in vivo; details: mouse
Experimental: (§3) The activity for the hemostatic action is determined in vivo, by ROSKAM's method, as modified by LAPORTE, on the rabbit's ear, and the protective action on the capillaries by the method of BEACH and STEINETZ. The therapeutical index (ratio between LD50 and TE50) is very favorable, in view of the high activity and low toxicity.
The action of bis diethylamine p-dihydroxy benzene disulfonate on the capillary permeability for the mouse was determined by the modified method of BEACH-STEINITZ (J. Pharmacol. Exp. Ther. 131 (1), 400, 1961). The product, administered i.p., causes a decrease of the capillary permeability which appears after 8 micromoles/kg, and higher doses, and the maximum effect is attained at a dose of 200 micromoles/kg.

[3] = DL50 of some compounds according to the invention (species not stated); set-up: DL50: unit not given beside the values; details: in vivo
Description: The following table gives the values for DL50 and DE50, as well as proposed doses of some compounds according to the present invention.

average bleeding time = assay: Hemostatic action: average bleeding time, method of ROSKAM modified by LAPORTE, rabbit's ear; format: in vivo; details: for DE50: effect and route not given; for Percentage decrease of average bleeding time: one hour after administering
Experimental: as §3

[4] = test system: plasma cholesterol, triglyceride, and total lipids levels; assay: Hypolipedemic action in rats treated with Triton WR-1339; format: in vivo, Sprague-Dawley rats

In the case of `O=S(=O)(O)c1cc(O)c(S(=O)(=O)O)cc1O` [bis-diethylamine p-dihydroxy benzene disulfonate] [listing 1 of 2 here], the LD50 ([1]; iv, I.V., mouse female) is reported as 1020 mg/kg, the LD50 ([1]; iv, I.V., mouse male) is reported as 1020 mg/kg and the LD50 ([1]; po, mouse female) is reported as 5880 mg/kg. For the same compound, the LD50 ([1]; po, mouse male) was 6290 mg/kg, the LD50 ([2]; ip, I.P., rat female) was 2440 mg/kg and the LD50 ([2]; ip, I.P., rat male) was 2650 mg/kg. The LD50 ([2]; po, rat female) was 4680 mg/kg, the LD50 ([2]; po, rat male) was 5840 mg/kg and the ED (maximum effect) (capillary permeability; ip, read-out: dose at which maximum effect on capillary permeability is attained) was 200 µmol/kg. The minimal effective dose (capillary permeability; ip, read-out: dose from which decrease of the capillary permeability appears) was ≥ 8 µmol/kg.

In the case of `O=S(=O)(O)c1cc(O)c(S(=O)(=O)O)cc1O` [bis (piperazine) p-dihydroxy-benzene disulfonate] [bis (piperazine) p-dihydroxy benzene disulfonate], the DL50 ([3]; po) is reported as > 2000 and the DE50 (average bleeding time) is reported as 1,25 μmoles/kg.

In the case of `O=S(=O)(O)c1cc(O)c(S(=O)(=O)O)cc1O` [bis (ammonium) p-dihydroxy-benzene disulfonate] [bis (ammonium)-p-dihydroxy benzene disulfonate], the DE50 (average bleeding time) is reported as 2,45 μmoles/kg.

`O=S(=O)(O)c1cc(O)c(S(=O)(=O)O)cc1O` [bis (ammonium)-p-dihydroxy benzene disulfonate] gave an LD50 ([3]; route not given) of 1210 mg/kg.

With `O=S(=O)(O)c1cc(O)c(S(=O)(=O)O)cc1O` [lithium p-dihydroxybenzene-disulfonate, lithium p-dihydroxy benzene disulfonate] the DL50 ([3]; iv) was 2186 and the DE50 (average bleeding time) was 0,90 μmoles/kg.

In the case of `O=S(=O)(O)c1cc(O)c(S(=O)(=O)O)cc1O` [bis-diethylamine p-dihydroxy benzene disulfonate] [listing 2 of 2 here], the “Percentage decrease of average bleeding time” value (“Percentage decrease” for short) (average bleeding time; 0.625 micromoles/kg) is reported as 8.5%, the “Percentage decrease” value (average bleeding time; 1.25 micromoles/kg) is reported as 19.5% and the “Percentage decrease” value (average bleeding time; 2.5 micromoles/kg) is reported as 32.0%. The “duration of effect on bleeding time (in words)” value (average bleeding time; 5 micromoles/kg) was “long lasting”, the “% decrease of average bleeding time” value (average bleeding time; 5 micromoles/kg, 1 hour after i.v. administration) was 43.0% and the “% decrease of average bleeding time” value (average bleeding time; 5 micromoles/kg, 2 hours after i.v. administration) was 46.8%. The “% decrease of average bleeding time” value (average bleeding time; 5 micromoles/kg, 4 hours after i.v. administration) was 42.0%, the “% decrease of average bleeding time” value (average bleeding time; 5 micromoles/kg, 8 hours after i.v. administration) was 33.5% and the “% decrease of average bleeding time” value (average bleeding time; 5 micromoles/kg, 16 hours after i.v. administration) was 32.0%. The “% decrease of average bleeding time” value (average bleeding time; 5 micromoles/kg, 24 hours after i.v. administration) was 21.0%, the “Percentage decrease” value (average bleeding time; 5.0 micromoles/kg) was 43.0% and the “Percentage decrease” value (average bleeding time; 7.05 micromoles/kg) was 51.0%. For the same compound, the “Percentage decrease” value (average bleeding time; 10.0 micromoles/kg) was 50.0%, the DE50 (average bleeding time) was 2,25 μmoles/kg and the “effect on bleeding time (in words)” value (average bleeding time; rabbit) was “produces a decrease of the bleeding time”. For the same compound, the “dose dependence of decrease of capillary permeability (in words)” value (capillary permeability; i.p., intermediate doses (8 to 200 micromoles/kg)) was “effects proportional to the logarithm of the dose”, the “FREE CHOLESTEROL (plasma)” value ([4]; Triton + compound, Triton alone 60.5 ± 2.5) was 54.4 ± 3.9 mg % and the “TOTAL CHOLESTEROL (plasma)” value ([4]; Triton + compound, Triton alone 238.4 ± 6.5) was 223.0 ± 15.1 mg %. The “TRIGLYCERIDES (plasma)” value ([4]; Triton + compound, Triton alone 773.5 ± 59.1) was 589.5 ± 57.9 mg %, the “TOTAL LIPIDS (plasma)” value ([4]; Triton + compound, Triton alone 2466.9 ± 141.2) was 2001.9 ± 193.7 mg % and the “effect on increase of plasma cholesterol, triglyceride, and total lipids levels (in words)” value ([4]; Triton WR-1339 treated rats) was “significantly inhibits the increase”.

With `O=S(=O)(O)c1cc(O)c(S(=O)(=O)O)cc1O` [calcium p-dihydroxybenzene-disulfonate, calcium p-dihydroxy benzene disulfonate] the DL50 ([3]; po) was > 6880 and the DE50 (average bleeding time) was 0,98 μmoles/kg.
